{"source": "patent US9523100B2", "about": "“Pesticidal compositions and related methods” (DOW AGROSCIENCES LLC, priority 2013, dated 2016)", "key": {"[1]": {"test_system": "Sweetpotato Whitefly-Crawler (WF) (Bemisia tabaci) (BEMITA)", "assay": "Insecticidal test for Sweetpotato Whitefly-Crawler (WF) in foliar spray assay on cotton plants", "type": "in vivo", "settings": "216 h, 200 ppm foliar spray on cotton plants, graded after 9 days, Abbott corrected % control, read-out: WF 200 ppm, % Control (or Mortality) rating", "summary_of_the_method": "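Cotton plants carrying 200–400 whitefly eggs sprayed to run-off on both leaf surfaces at 200 ppm (acetone/0.025% Tween 20), four plants per treatment. After 9 days at about 25 °C, live 3rd–4th instar nymphs counted; Abbott-corrected percent control versus solvent check.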"}, "[2]": {"test_system": "Green Peach Aphid (GPA) (Myzus persicae) (MYZUPE)", "assay": "Bioassay for Green Peach Aphid (GPA), foliar spray on cabbage seedlings", "type": "in vivo", "settings": "72 h, 200 ppm foliar spray on cabbage seedlings, graded after three days, Abbott corrected % control, read-out: GPA 200 ppm, % Control (or Mortality) rating", "summary_of_the_method": "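Cabbage seedlings infested with 20-50 GPA (wingless adults and nymphs) one day before spraying to runoff with 200 ppm compound; four pots per treatment. Live aphids counted after three days at ~25° C; percent control by Abbott's correction against solvent-sprayed plants.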"}}, "data": [{"smiles": "CN(C(=O)[C@H]1C=C[C@@H](NC(=O)OC(C)(C)C)C1)c1cn(-c2cccnc2)nc1Cl", "note": "[Compound F116, tert-Butyl ((1S,4R)-4-((3-chloro-1-(pyridin-3-yl)-1H-pyrazol-4-yl)(methyl)carbamoyl)cyclopent-2-en-1-yl)carbamate]", "values": [{"measurement": "mortality at 200 ppm", "setting": "[1]", "value": "80 to 100", "unit": "%"}, {"measurement": "mortality at 200 ppm", "setting": "[2]", "value": "0 to 80", "unit": "%"}]}, {"smiles": "CCN(C(=O)CC1CN(Cc2ccc(C(F)(F)F)nc2)C1=O)c1cn(-c2cccnc2)nc1Cl", "note": "(stereo not drawn) [Compound F117]", "values": [{"measurement": "mortality at 200 ppm", "setting": "[1]", "value": "80 to 100", "unit": "%"}, {"measurement": "mortality at 200 ppm", "setting": "[2]", "value": "80 to 100", "unit": "%"}]}, {"smiles": "CCN(C(=O)CCC(=O)N(C)Cc1ccc(F)cc1)c1cn(-c2cccnc2)nc1Cl", "note": "[Compound F118, N1-(3-Chloro-1-(pyridin-3-yl)-1H-pyrazol-4-yl)-N1-ethyl-N4-(4-fluorobenzyl)-N4-methylsuccinamide]", "values": [{"measurement": "mortality at 200 ppm", "setting": "[1]", "value": "80 to 100", "unit": "%"}, {"measurement": "mortality at 200 ppm", "setting": "[2]", "value": "80 to 100", "unit": "%"}]}, {"smiles": "CCN(C(=O)CCC1CN(C)C1=O)c1cn(-c2cccnc2)nc1Cl", "note": "(stereo not drawn) [Compound F119, N-(3-Chloro-1-(pyridin-3-yl)-1H-pyrazol-4-yl)-N-ethyl-3-(1-methyl-2-oxoazetidin-3-yl)propanamide]", "values": [{"measurement": "mortality at 200 ppm", "setting": "[1]", "value": "80 to 100", "unit": "%"}, {"measurement": "mortality at 200 ppm", "setting": "[2]", "value": "80 to 100", "unit": "%"}]}, {"smiles": "CCN(C(=O)CN(C)C(=O)CC(F)(F)F)c1cn(-c2cccnc2)nc1Cl", "note": "[Compound F120, N-(2-((3-Chloro-1-(pyridin-3-yl)-1H-pyrazol-4-yl)(ethyl)amino)-2-oxoethyl)-3,3,3-trifluoro-N-methylpropanamide]", "values": [{"measurement": "mortality at 200 ppm", "setting": "[1]", "value": "80 to 100", "unit": "%"}, {"measurement": "mortality at 200 ppm", "setting": "[2]", "value": "80 to 100", "unit": "%"}]}, {"smiles": "CCN(C(=O)CCN(C)C(=O)N(C)C)c1cn(-c2cccnc2)nc1Cl", "note": "[Compound F121, N-(3-Chloro-1-(pyridin-3-yl)-1H-pyrazol-4-yl)-N-ethyl-3-(1,3,3-trimethylureido)propanamide]", "values": [{"measurement": "mortality at 200 ppm", "setting": "[1]", "value": "80 to 100", "unit": "%"}, {"measurement": "mortality at 200 ppm", "setting": "[2]", "value": "80 to 100", "unit": "%"}]}, {"smiles": "CCN(C(=O)Cn1ccccc1=O)c1cn(-c2cccnc2)nc1Cl", "note": "[Compound F122, N-(3-Chloro-1-(pyridin-3-yl)-1H-pyrazol-4-yl)-N-ethyl-2-(2-oxopyridin-1(2H)-yl)acetamide]", "values": [{"measurement": "mortality at 200 ppm", "setting": "[1]", "value": "80 to 100", "unit": "%"}, {"measurement": "mortality at 200 ppm", "setting": "[2]", "value": "0 to 80", "unit": "%"}]}, {"smiles": "CCN(C(=O)CN1CCCCCC1=O)c1cn(-c2cccnc2)nc1Cl", "note": "[Compound F123, N-(3-Chloro-1-(pyridin-3-yl)-1H-pyrazol-4-yl)-N-ethyl-2-(2-oxoazepan-1-yl)acetamide]", "values": [{"measurement": "mortality at 200 ppm", "setting": "[1]", "value": "80 to 100", "unit": "%"}, {"measurement": "mortality at 200 ppm", "setting": "[2]", "value": "0 to 80", "unit": "%"}]}, {"smiles": "CCN(C(=O)CN1CCCC1=O)c1cn(-c2cccnc2)nc1Cl", "note": "[Compound F124, N-(3-Chloro-1-(pyridin-3-yl)-1H-pyrazol-4-yl)-N-ethyl-2-(2-oxopyrrolidin-1-yl)acetamide]", "values": [{"measurement": "mortality at 200 ppm", "setting": "[1]", "value": "80 to 100", "unit": "%"}, {"measurement": "mortality at 200 ppm", "setting": "[2]", "value": "80 to 100", "unit": "%"}]}, {"smiles": "CCN(C(=O)CCN(CC(F)F)C(=O)CC1CC1)c1cn(-c2cccnc2)nc1Cl", "note": "[Compound F125, N-(3-Chloro-1-(pyridin-3-yl)-1H-pyrazol-4-yl)-3-(2-cyclopropyl-N-(2,2-difluoroethyl)acetamido)-N-ethylpropanamide]", "values": [{"measurement": "mortality at 200 ppm", "setting": "[1]", "value": "80 to 100", "unit": "%"}, {"measurement": "mortality at 200 ppm", "setting": "[2]", "value": "80 to 100", "unit": "%"}]}, {"smiles": "CN(C(=O)[C@@H]1C=C[C@H](NC(=O)C(F)(F)F)C1)c1cn(-c2cccnc2)nc1Cl", "note": "[Compound F126, (1S,4R)-N-(3-chloro-1-(pyridin-3-yl)-1H-pyrazol-4-yl)-N-methyl-4-(2,2,2-trifluoroacetamido)cyclopent-2-enecarboxamide]", "values": [{"measurement": "mortality at 200 ppm", "setting": "[1]", "value": "80 to 100", "unit": "%"}, {"measurement": "mortality at 200 ppm", "setting": "[2]", "value": "0 to 80", "unit": "%"}]}, {"smiles": "CCN(C(=O)CCCC1CN(Cc2ccc(C(F)(F)F)cc2)C1=O)c1cn(-c2cccnc2)nc1Cl", "note": "(stereo not drawn) [Compound F127, N-(3-Chloro-1-(pyridin-3-yl)-1H-pyrazol-4-yl)-N-ethyl-4-(2-oxo-1-(4-(trifluoromethyl)benzyl)azetidin-3-yl)butanamide]", "values": [{"measurement": "mortality at 200 ppm", "setting": "[1]", "value": "80 to 100", "unit": "%"}, {"measurement": "mortality at 200 ppm", "setting": "[2]", "value": "0 to 80", "unit": "%"}]}, {"smiles": "CCN(C(=O)CCC1CCN(C(=O)OC(C)(C)C)C1=O)c1cn(-c2cccnc2)nc1Cl", "note": "(stereo not drawn) [Compound F128, tert-butyl 3-(3-((3-chloro-1-(pyridin-3-yl)-1H-pyrazol-4-yl)(ethyl)amino)-3-oxopropyl)-2-oxopyrrolidine-1-carboxylate]", "values": [{"measurement": "mortality at 200 ppm", "setting": "[1]", "value": "80 to 100", "unit": "%"}, {"measurement": "mortality at 200 ppm", "setting": "[2]", "value": "80 to 100", "unit": "%"}]}, {"smiles": "CCN(C(=O)CCC1CN(Cc2ccc(C(F)(F)F)cc2)C1=O)c1cn(-c2cccnc2)nc1Cl", "note": "(stereo not drawn) [Compound F129]", "values": [{"measurement": "mortality at 200 ppm", "setting": "[1]", "value": "80 to 100", "unit": "%"}, {"measurement": "mortality at 200 ppm", "setting": "[2]", "value": "0 to 80", "unit": "%"}]}, {"smiles": "CCN(C(=O)CCC1CCNC1=O)c1cn(-c2cccnc2)nc1Cl", "note": "(stereo not drawn) [Compound F131, N-(3-chloro-1-(pyridin-3-yl)-1H-pyrazol-4-yl)-N-ethyl-3-(2-oxopyrrolidin-3-yl)propanamide]", "values": [{"measurement": "mortality at 200 ppm", "setting": "[1]", "value": "80 to 100", "unit": "%"}, {"measurement": "mortality at 200 ppm", "setting": "[2]", "value": "80 to 100", "unit": "%"}]}, {"smiles": "CCN(C(=O)C1CCN(C(=O)CC(F)(F)F)CC1)c1cn(-c2cccnc2)nc1Cl", "note": "[Compound P16, N-(3-chloro-1-(pyridin-3-yl)-1H-pyrazol-4-yl)-N-ethyl-1-(3,3,3-trifluoropropanoyl) piperidine-4-carboxamide]", "values": [{"measurement": "mortality at 200 ppm", "setting": "[1]", "value": "0 to 80", "unit": "%"}, {"measurement": "mortality at 200 ppm", "setting": "[2]", "value": "80 to 100", "unit": "%"}]}, {"smiles": "CCN(C(=O)C1CCN(C(C)=O)C1)c1cn(-c2cccnc2)nc1Cl", "note": "(stereo not drawn) [Compound P20, 1-Acetyl-N-(3-chloro-1-(pyridin-3-yl)-1H-pyrazol-4-yl)-N-ethylpyrrolidine-3-carboxamide]", "values": [{"measurement": "mortality at 200 ppm", "setting": "[1]", "value": "0 to 80", "unit": "%"}, {"measurement": "mortality at 200 ppm", "setting": "[2]", "value": "80 to 100", "unit": "%"}]}, {"smiles": "CCN(C(=O)C1CCN(C(=O)CC(F)(F)F)C1)c1cn(-c2cccnc2)nc1Cl", "note": "(stereo not drawn) [Compound P21, N-(3-Chloro-1-(pyridin-3-yl)-1H-pyrazol-4-yl)-N-ethyl-1-(3,3,3-trifluoropropanoyl)pyrrolidine-3-carboxamide]", "values": [{"measurement": "mortality at 200 ppm", "setting": "[1]", "value": "0 to 80", "unit": "%"}, {"measurement": "mortality at 200 ppm", "setting": "[2]", "value": "80 to 100", "unit": "%"}]}, {"smiles": "CCN(C(=O)C1CN(C(C)=O)C1)c1cn(-c2cccnc2)nc1Cl", "note": "[Compound P23, 1-Acetyl-N-(3-chloro-1-(pyridin-3-yl)-1H-pyrazol-4-yl)-N-ethylazetidine-3-carboxamide]", "values": [{"measurement": "mortality at 200 ppm", "setting": "[1]", "value": "80 to 100", "unit": "%"}, {"measurement": "mortality at 200 ppm", "setting": "[2]", "value": "80 to 100", "unit": "%"}]}, {"smiles": "CCN(C(=O)C1CN(C(=O)CC(F)(F)F)C1)c1cn(-c2cccnc2)nc1Cl", "note": "[Compound P24, N-(3-Chloro-1-(pyridin-3-yl)-1H-pyrazol-4-yl)-N-ethyl-1-(3,3,3-trifluoropropanoyl)azetidine-3-carboxamide]", "values": [{"measurement": "mortality at 200 ppm", "setting": "[1]", "value": "0 to 80", "unit": "%"}, {"measurement": "mortality at 200 ppm", "setting": "[2]", "value": "80 to 100", "unit": "%"}]}, {"smiles": "CCN(C(=O)CCn1ccc(/C(C)=N/OC)n1)c1cn(-c2cccnc2)nc1Cl", "note": "[FA1, (E/Z)-N-(3-Chloro-1-(pyridin-3-yl)-1H-pyrazol-4-yl)-N-ethyl-3-(3-(1-(methoxyimino)ethyl)-1H-pyrazol-1-yl)propanamide]", "values": [{"measurement": "mortality at 200 ppm", "setting": "[1]", "value": "80 to 100", "unit": "%"}, {"measurement": "mortality at 200 ppm", "setting": "[2]", "value": "0 to 80", "unit": "%"}]}, {"smiles": "CCN(C(=O)CCn1ccc(/C(C)=N/OC(C)C)n1)c1cn(-c2cccnc2)nc1Cl", "note": "[FA2, (E/Z)-N-(3-Chloro-1-(pyridin-3-yl)-1H-pyrazol-4-yl)-N-ethyl-3-(3-(1-(isopropoxyimino)ethyl)-1H-pyrazol-1-yl)propanamide]", "values": [{"measurement": "mortality at 200 ppm", "setting": "[1]", "value": "80 to 100", "unit": "%"}, {"measurement": "mortality at 200 ppm", "setting": "[2]", "value": "0 to 80", "unit": "%"}]}, {"smiles": "CCN(C(=O)C1CCCN(C(=O)C(C)C)C1)c1cn(-c2cccnc2)nc1Cl", "note": "(stereo not drawn) [FA3, N-(3-Chloro-1-(pyridin-3-yl)-1H-pyrazol-4-yl)-N-ethyl-1-isobutylylpiperidine-3-carboxamide]", "values": [{"measurement": "mortality at 200 ppm", "setting": "[1]", "value": "80 to 100", "unit": "%"}, {"measurement": "mortality at 200 ppm", "setting": "[2]", "value": "80 to 100", "unit": "%"}]}, {"smiles": "CCN(C(=O)CC/C(C)=N/OCCCCC(F)(F)F)c1cn(-c2cccnc2)nc1Cl", "note": "[FA4, (E/Z)-N-(3-Chloro-1-(pyridin-3-yl)-1H-pyrazol-4-yl)-N-ethyl-4-(((5,5,5-trifluoropentyl)oxy)imino)pentanamide]", "values": [{"measurement": "mortality at 200 ppm", "setting": "[1]", "value": "80 to 100", "unit": "%"}, {"measurement": "mortality at 200 ppm", "setting": "[2]", "value": "0 to 80", "unit": "%"}]}]}
